Here are results for 2 compounds from US20200405727A1, “NEW ALK INHIBITOR SENOLYTIC DRUGS” (FONDAZIONE PER L'ISTITUTO ONCOLOGICO DI RICERCA (IOR), priority 2018, published 2020).

One test deals with MEF Pten−/− (PICS). Briefly: Senolytic screening in PICS (Docetaxel-induced senescent MEF Pten−/−), cell viability and SA-β-Gal. Type of test: cell-based, murine. Particulars: 10 μM, 48 hours, MEF Pten−/− pre-treated with Docetaxel 750 nM; versus ABT-263 positive control. As to the method:
(§1) The platform which was devised in our laboratory is capable of identifying the senolytic compounds based upon two parameters: (1) the inhibition of the cell viability and (2) the removal of the positive cells to the assay of β-Galactosidase (SA-β-Gal, senescence marker). As positive control of the compounds at the test stage, we included ABT-263, previously identified as senolytic compound 2. At last, the senolytic potentiality of these compounds is tested on murine embryonic fibroblasts (MEF) Pten−/− and WT.
(§2) Technically the screening was performed in three passages; • Before treatment, to the culture medium of MEF (DMEM, 10%FBS, 5% P/S) Docetaxel is added, at the concentration of 750 nM for 48 hours. […] The cells were seeded in a 96-well plate at a density of 5000 cells per well. In the more external wells PBS was added, so as to be able to maintain the correct humidity inside the plate. • At last, 24 hours after the seeding of cells, the compounds of our study were added to the cells for 48 hours at the concentration of 10 μM. […]

In a further test the test system is MEF wt (NS). Briefly: Senolytic screening, specificity on non-senescent MEF wt. Type of test: cell-based, murine. Particulars: 10 μM, 48 hours; versus ABT-263. As to the method:
as §1, §2

Test [1] deals with MEFs in replicative senescence (RS). Briefly: Replicative senescence assay in MEFs, Crystal Violet and SA-β-Gal. Type of test: cell-based, murine. Particulars: 10 μM, passage 8, Crystal Violet and SA-β-Gal. As to the method: (§3) The senolytic activity of Alectinib was validated in the context of the replicative senescence: assay which mimes the natural process of cell ageing due to the shortening of telomers. The MEFs were seeded in 10 cm2-plates (3×10^5 cells/plate). Every 3 days these cells were detached by means of trypsin, counted with Trypan Blu and plated in the same number. This process was performed for 8 passages before starting the senolytic treatment. At passages 8 and 9 the senescence of these cells was tested by means of the assay of SA-β-Gal (about 78% of senescent cells).
(§4) At passage 8, the non-senescent cells (NS) and cells in replicative senescence (RS) were seeded in a 96-well plate (5000 cells/well) and treated at different concentrations of Alectinib.

Another test relates to non-senescent (NS) MEFs. Briefly: Replicative senescence assay in MEFs, non-senescent cells. It counts as cell-based, murine. The settings on record: 10 μM, Crystal Violet and SA-β-Gal. How it is done: as §3, §4
Test [2] relates to IMR90 in replicative senescence (RS). Nature of the test: Replicative senescence assay in human fibroblasts IMR90, Crystal Violet and SA-β-Gal. The settings on record: 2.5 μM, passage 33, Crystal Violet and SA-β-Gal. It counts as cell-based. As to the method: (§5) This assay was validated even with human fibroblasts, IMR90. Analogously to the protocol used for the MEFs, the IMR90 were seeded in 10 cm2-wide plates (3×10^5 cells/plate). Every 3 days these cells were detached by means of trypsin, counted with Trypan Blu and plated in the same number. This process was performed for 33 passages before starting the senolytic treatment. At passages 33 and 34 the senescence of these cells was tested by means of the assay of SA-β-Gal (about 78% of senescent cells).
(§6) At passage 33 non-senescent (NS) cells and cells in replicative senescence (RS) were seeded in a 96-well plate (5000 cells/well) and treated with different concentrations of Alectinib.

The test system of another test is non-senescent (NS) IMR90. Briefly: Replicative senescence assay in IMR90, non-senescent cells. It counts as cell-based, human. The settings on record: 2.5 μM, Crystal Violet and SA-β-Gal. How it is done: as §5, §6
The next test deals with TrampC1. Briefly: Removal of Palbociclib-induced senescent TrampC1 prostate cancer cells, Crystal Violet and SA-β-Gal. Type of test: cell-based, murine. The settings on record: 5 μM for 48 hours, senescence induced with Palbociclib. As to the method: (§7) Subsequently we tested the effects of Alectinib on cancer cell lines pre-treated with stimulator of senescence. In the specific case we used TrampC1 and PC3, two cell lines of prostate cancer, respectively murine and human lines. With the purpose of inducing the senescence in these cells, we used Palbociclib, a specific inhibitor of […] currently used in clinic in the treatment of breast cancer. Once the cells started senescence, Alectinib was added to the culture medium at the concentration of 5 μM for 48 hours.

A further test concerns PC3. Briefly: Removal of Palbociclib-induced senescent PC3 prostate cancer cells, Crystal Violet and SA-β-Gal. Type of test: cell-based, human. Particulars: 5 μM for 48 hours, senescence induced with Palbociclib. As to the method:
as §7

The test system of a further test is MEF Pten−/−. Nature of the test: Induction of senescence in MEF Pten−/− by Docetaxel. It counts as cell-based, murine. The settings on record: 750 nM for 48 hours. How it is done: (§8) Technically the screening was performed in three passages; • Before treatment, to the culture medium of MEF (DMEM, 10%FBS, 5% P/S) Docetaxel is added, at the concentration of 750 nM for 48 hours. […] The cells were seeded in a 96-well plate at a density of 5000 cells per well. In the more external wells PBS was added, so as to be able to maintain the correct humidity inside the plate. • At last, 24 hours after the seeding of cells, the compounds of our study were added to the cells for 48 hours at the concentration of 10 μM.

For the next test, the system named is MEF WT. Nature of the test: Effect of Docetaxel on cell cycle of MEF WT. It counts as cell-based, murine. The settings on record: 750 nM for 48 hours. How it is done: as §8

Entries after “also recorded” stand apart in the source; their conditions may differ.

`CCc1cc2c(cc1N1CCC(N3CCOCC3)CC1)C(C)(C)c1[nH]c3cc(C#N)ccc3c1C2=O` [Alectinib]: the “removal of senescent cells (PICS)” value in the test with MEF Pten−/− (PICS) is “strong capability in killing the PICS cells; also recorded: effectiveness comparable to ABT-263”. Moreover, the “selectivity: impact on MEF wt (NS)” value with MEF wt (NS) is recorded as “non-senescent, NS, cells are kept vital; also recorded: more selective by impacting less seriously on MEF wt (NS)”. Besides, in test [1], the “removal of senescent cells (RS MEFs)” value is “capable of removing the senescent cells”. Also, the “impact on NS cells (MEFs)” value in the test with non-senescent (NS) MEFs is listed as “without killing the non-senescent (NS) cells; also recorded: without impacting on the cells NS”. Also, in [2], the “removal of senescent cells (RS IMR90)” value is “capable of removing the senescent cells”. The “impact on NS cells (IMR90)” value with non-senescent (NS) IMR90 was “without killing the non-senescent (NS) cells; also recorded: without impacting on the NS cells”. Also, in the test with TrampC1, the “removal of senescent cells (TrampC1)” value is “capability of removing the senescent cells in both cell lines; also recorded: capable of removing successfully the senescent cells”. Also, the “removal of senescent cells (PC3)” value with PC3 is given as “capability of removing the senescent cells in both cell lines; also recorded: capable of removing successfully the senescent cells”.

As to `CC(=O)O[C@@]12CO[C@@H]1C[C@H](O)[C@@]1(C)C(=O)[C@H](O)C3=C(C)[C@@H](OC(=O)[C@H](O)[C@@H](NC(=O)OC(C)(C)C)c4ccccc4)C[C@@](O)([C@@H](OC(=O)c4ccccc4)[C@H]21)C3(C)C` [Docetaxel], in the test with MEF Pten−/−, the “senescence of MEF Pten−/−” value is on record as 80%. Moreover, the “cell cycle of MEF WT” value with MEF WT is “without altering the cell cycle of MEF WT”.
